Assay results from PMC9934367, “Functional impact of subunit composition and compensation on Drosophila melanogaster nicotinic receptors–targets of neonicotinoids” (PLOS Genetics, 2023).

Test system: D. melanogaster nAChRs
Assay: Comparison of agonist activity between nAChRs expressed in X. laevis oocytes (one-way ANOVA, Kruskal-Wallis)
Assay type: cell-based
Procedure, shortened: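 D. melanogaster nAChR subunits and co-factors expressed in X. laevis oocytes by cRNA injection, recorded after 3–4 days by two-electrode voltage clamp at −100 mV in saline with 0.5 μM atropine. Peak currents fitted to a Hill equation for EC50; pEC50 differences tested by one-way ANOVA or Kruskal-Wallis.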

CC(=O)OCC[N+](C)(C)C [ACh, acetylcholine]
Difference of pEC50 values, nAChRs compared (Dα1/Dα2/Dα3/Dβ1/Dβ2 vs. Dα1/Dα2/Dβ1/Dβ2/Dβ3): 0.07 | Difference of pEC50 values, nAChRs compared (Dα1/Dα2/Dα3/Dβ1/Dβ2 vs. Dα1/Dα3/Dα4/Dβ1/Dβ2): -0.30 | Difference of pEC50 values, nAChRs compared (Dα1/Dα2/Dα3/Dβ1/Dβ2 vs. Dα1/Dα3/Dβ1/Dβ2/Dβ3): -1.34 | Difference of pEC50 values, nAChRs compared (Dα1/Dα2/Dα3/Dβ1/Dβ2 vs. Dα2/Dα3/Dα4/Dβ1/Dβ2): -1.00 | Difference of pEC50 values, nAChRs compared (Dα1/Dα2/Dα3/Dβ1/Dβ2 vs. Dα2/Dα3/Dβ1/Dβ2/Dβ3): -1.52 | Difference of pEC50 values (Dα1/Dα2/Dα3/Dβ1 vs. Dα1/Dα2/Dα3/Dβ1/Dβ2): 0.94 | Difference of pEC50 values (Dα1/Dα2/Dα3/Dβ1 vs. Dα1/Dα2/Dβ1/Dβ2): 0.51 | Difference of pEC50 values (Dα1/Dα2/Dα3/Dβ1 vs. Dα1/Dα3/Dβ1/Dβ2): -1.00 | Difference of pEC50 values (Dα1/Dα2/Dα3/Dβ1 vs. Dα1/Dβ1/Dβ2): 0.68 | Difference of pEC50 values (Dα1/Dα2/Dα3/Dβ1 vs. Dα3/Dβ1/Dβ2): -0.76 | Difference of pEC50 values (Dα1/Dα2/Dβ1/Dβ2 vs. Dα2/Dα3/Dβ1/Dβ2): -1.07 | Difference of pEC50 values (Dα1/Dα2/Dβ1 vs. Dα1/Dα2/Dα3/Dβ1): -1.29 | Difference of pEC50 values (Dα1/Dα2/Dβ1 vs. Dα1/Dα2/Dα3/Dβ1/Dβ2): -0.35 | Difference of pEC50 values (Dα1/Dα2/Dβ1 vs. Dα1/Dα2/Dβ1/Dβ2): -0.78 | Difference of pEC50 values (Dα1/Dα2/Dβ1 vs. Dα1/Dα3/Dβ1/Dβ2): -2.29 | Difference of pEC50 values (Dα1/Dα2/Dβ1 vs. Dα2/Dα3/Dβ1): -1.31 | Difference of pEC50 values (Dα1/Dα2/Dβ1 vs. Dα2/Dα3/Dβ1/Dβ2): -1.85 | Difference of pEC50 values (Dα1/Dα2/Dβ1 vs. Dα3/Dβ1/Dβ2): -2.05 | Difference of pEC50 values (Dα1/Dα3/Dβ1/Dβ2 vs. Dα1/Dα2/Dα3/Dβ1/Dβ2): 1.94 | Difference of pEC50 values (Dα1/Dα3/Dβ1/Dβ2 vs. Dα1/Dα2/Dβ1/Dβ2): 1.51 | Difference of pEC50 values (Dα1/Dα3/Dβ1 vs. Dα1/Dα2/Dα3/Dβ1/Dβ2): 1.36 | Difference of pEC50 values (Dα1/Dα3/Dβ1 vs. Dα1/Dα2/Dβ1): 1.71 | Difference of pEC50 values (Dα1/Dα3/Dβ1 vs. Dα1/Dα2/Dβ1/Dβ2): 0.93 | Difference of pEC50 values (Dα1/Dα3/Dβ1 vs. Dα1/Dβ1/Dβ2): 1.10 | Difference of pEC50 values (Dα1/Dα3/Dβ1 vs. Dα2/Dα3/Dβ1): 0.40 | Difference of pEC50 values (Dα1/Dα3/Dβ1 vs. Dα3/Dβ1/Dβ2): -0.34 | Difference of pEC50 values (Dα1/Dβ1/Dβ2 vs. Dα1/Dα2/Dα3/Dβ1/Dβ2): 0.26 | Difference of pEC50 values (Dα1/Dβ1/Dβ2 vs. Dα1/Dα3/Dβ1/Dβ2): -1.68 | Difference of pEC50 values (Dα1/Dβ1/Dβ2 vs. Dα2/Dα3/Dβ1/Dβ2): -1.24 | Difference of pEC50 values (Dα1/Dβ1/Dβ2 vs. Dα3/Dβ1/Dβ2): -1.44 | Difference of pEC50 values (Dα1/Dβ1 vs. Dα1/Dα2/Dα3/Dβ1/Dβ2): 0.75 | Difference of pEC50 values (Dα1/Dβ1 vs. Dα1/Dα2/Dβ1): 1.10 | Difference of pEC50 values (Dα1/Dβ1 vs. Dα1/Dα2/Dβ1/Dβ2): 0.32 | Difference of pEC50 values (Dα1/Dβ1 vs. Dα1/Dα3/Dβ1/Dβ2): -1.19 | Difference of pEC50 values (Dα1/Dβ1 vs. Dα1/Dβ1/Dβ2): 0.49 | Difference of pEC50 values (Dα1/Dβ1 vs. Dα2/Dα3/Dβ1): -0.21 | Difference of pEC50 values (Dα1/Dβ1 vs. Dα2/Dα3/Dβ1/Dβ2): -0.75 | Difference of pEC50 values (Dα1/Dβ1 vs. Dα3/Dβ1): -0.90 | Difference of pEC50 values (Dα1/Dβ1 vs. Dα3/Dβ1/Dβ2): -0.95 | Difference of pEC50 values (Dα2/Dα3/Dβ1/Dβ2 vs. Dα1/Dα2/Dα3/Dβ1/Dβ2): 1.50 | Difference of pEC50 values (Dα2/Dα3/Dβ1 vs. Dα1/Dα2/Dα3/Dβ1): 0.02 | Difference of pEC50 values (Dα2/Dα3/Dβ1 vs. Dα1/Dα2/Dα3/Dβ1/Dβ2): 0.96 | Difference of pEC50 values (Dα2/Dα3/Dβ1 vs. Dα1/Dα3/Dβ1/Dβ2): -0.98 | Difference of pEC50 values (Dα2/Dα3/Dβ1 vs. Dα1/Dβ1/Dβ2): 0.70 | Difference of pEC50 values (Dα2/Dα3/Dβ1 vs. Dα3/Dβ1/Dβ2): -0.74 | Difference of pEC50 values (Dα3/Dβ1/Dβ2 vs. Dα1/Dα2/Dα3/Dβ1/Dβ2): 1.70 | Difference of pEC50 values (Dα3/Dβ1/Dβ2 vs. Dα1/Dα2/Dβ1/Dβ2): 1.27 | Difference of pEC50 values (Dα3/Dβ1/Dβ2 vs. Dα1/Dα3/Dβ1/Dβ2): -0.24 | Difference of pEC50 values (Dα3/Dβ1/Dβ2 vs. Dα2/Dα3/Dβ1/Dβ2): 0.20 | Difference of pEC50 values (Dα3/Dβ1 vs. Dα1/Dα2/Dα3/Dβ1): 0.71 | Difference of pEC50 values (Dα3/Dβ1 vs. Dα1/Dα2/Dα3/Dβ1/Dβ2): 1.65 | Difference of pEC50 values (Dα3/Dβ1 vs. Dα1/Dα2/Dβ1): 2.00 | Difference of pEC50 values (Dα3/Dβ1 vs. Dα1/Dα2/Dβ1/Dβ2): 1.22 | Difference of pEC50 values (Dα3/Dβ1 vs. Dα1/Dα3/Dβ1): 0.29 | Difference of pEC50 values (Dα3/Dβ1 vs. Dα1/Dα3/Dβ1/Dβ2): -0.29 | Difference of pEC50 values (Dα3/Dβ1 vs. Dα1/Dβ1/Dβ2): 1.39 | Difference of pEC50 values (Dα3/Dβ1 vs. Dα2/Dα3/Dβ1): 0.69 | Difference of pEC50 values (Dα3/Dβ1 vs. Dα3/Dβ1/Dβ2): -0.05
